# Data taken from PMC5515887, “Ruthenium-conjugated chrysin analogues modulate platelet activity, thrombus formation and haemostasis with enhanced efficacy” (Scientific Reports, 2017).
# Columns and labels:
# [1] = system: outside-in signalling by integrin αIIbβ3; test: Clot retraction assay (outside-in signalling by integrin αIIbβ3); format: cell-based, human; details: PRP; 50 μM compound; 1 U/mL thrombin; three hours
# Protocol: R represents ‘resting’ platelets.
# Following fibrinogen binding, integrin αIIbβ3 triggers signalling into the platelets in order to induce clot retraction and promote wound healing. This also represents a late downstream signalling event in the platelet activation process. To determine whether chrysin and its derivatives affect outside-in signalling by integrin αIIbβ3, a clot retraction assay was performed. […] At three hours, the clot obtained with the vehicle control [0.1% (v/v) DMSO] retracted to around 50 mg.
# PRP (200 µL) was mixed with 5 µL of red blood cells and the final volume was made to 950 µL with modified Tyrodes-HEPES buffer in the presence and absence of various concentrations of chrysin or its synthetic derivatives. Clot formation was initiated by adding 1 U/mL (50 µL) thrombin. A glass capillary was placed in middle of the tube and the clot retraction was observed over a period of 3 hours at room temperature. Clot weight was measured as a marker for clot retraction after 3 hours.
# [2] = system: dense granule secretion in washed platelets; test: ATP release by lumi-aggregometry (marker for dense granule secretion); format: cell-based, human; details: 100 μM compound, CRP-XL 0.5 μg/mL
# Protocol: Figure 5 Chrysin and its derivatives affect granule secretion in platelets. […] The level of P-selectin (as a marker for α-granule secretion) was quantified using PECy5-labelled anti-human P-selectin antibodies by flow cytometry. […] R represents ‘resting’ platelets. […] Platelets were then activated with 0.5 μg/mL CRP-XL and the ATP release was monitored for 5 minutes by lumi-aggregometry. The traces shown are representative of three separate experiments.
# The preparation of human platelets and aggregation assays were performed using standard protocols as described by us previously, [16]. Briefly, human blood was collected in 3.2% citrate containing vacutainers via venepuncture from healthy, aspirin-free individuals with informed consent in accordance with the methods approved by the University of Reading Research Ethics Committee. All methods were performed in accordance with the relevant institutional and national guidelines and regulations. Blood samples were centrifuged at 102 g for 20 minutes at room temperature to separate the PRP, which was used in aggregation, flow cytometry, static platelet adhesion, calcium mobilisation and clot retraction assays. […] Dense granule secretion in platelets was determined by measuring the ATP release using the luciferin-luciferase reagent by lumi-aggregometry (Chrono-Log, USA). […]
# AKT = test: Immunoblot of AKT phosphorylation at S473 in CRP-XL activated platelets; format: cell-based, human; details: washed platelets, CRP-XL 0.5 μg/mL
# From the text: (§1) The calcium traces (Ai and Bi) shown are representative of three separate experiments. […] The platelets were lysed and used for immunoblot analysis to detect the level of AKT phosphorylation at residue S473, FAK phosphorylation at Y397 and phosphorylation of Src at Y527. The level of 14-3-3ζ protein was detected as a loading control. The cropped images of the blots shown here are representative of three separate experiments. The uncropped full length blots are presented in Supplementary Information (Figure S8).
# (§2) Calcium mobilisation is associated with phosphoinositide 3-kinase (PI3K) signalling in platelets. Protein kinase B (AKT) is a downstream effector of PI3K and a key marker for the PI3K/AKT signalling pathway. […]
# (§3) The preparation of human platelets and aggregation assays were performed using standard protocols as described by us previously, [16]. Briefly, human blood was collected in 3.2% citrate containing vacutainers via venepuncture from healthy, aspirin-free individuals with informed consent in accordance with the methods approved by the University of Reading Research Ethics Committee. […] Dense granule secretion in platelets was determined by measuring the ATP release using the luciferin-luciferase reagent by lumi-aggregometry (Chrono-Log, USA). […]
# Src = test: Immunoblot of Src phosphorylation at Y527 in CRP-XL activated platelets; format: cell-based, human; details: washed platelets, CRP-XL 0.5 μg/mL
# From the text: as §1, §2, §3
# human whole blood = test: In vitro thrombus formation under arterial flow conditions on collagen-coated Vena8 biochips; format: cell-based; details: 100 μM compound
# Protocol: Platelet activation under arterial flow conditions culminates in the formation of thrombus at the damaged blood vessels and thereby reducing the blood supply to target tissues.
# (§4) Thrombus formation was monitored by capturing Z-stack fluorescent images at every 30 seconds over 10 minutes by fluorescence microscopy. The images shown (A) at different time points and traces (B) are representative of three separate experiments. […] Data represent ± S.D. (n = 8 mice in each group).
# Z-stack images of thrombi were obtained every 30 seconds for up to 10 minutes using a Nikon eclipse (TE2000-U) microscope (Nikon Instruments, UK). The median fluorescence intensity and thrombus volume were calculated by analysing the images using ImageJ.
# haemostasis in mice = test: Tail bleeding assay; format: in vivo, C57BL/6 mice; details: final concentration 25 μM via femoral artery, 5 minutes before tail tip dissection, control 445 seconds
# Protocol: as §4, with “group). The p values shown (*p < 0.05 and ***p < 0.001) are as calculated by non-parametric Mann-Whitney test using Graphpad Prism.” for “group).”
# Following five minutes incubation, 1 mm of tail tip was dissected and the bleeding time was monitored.
# The University of Reading Local Ethical Review Panel and the British Home Office approved the tail-bleeding assay performed in this study. All methods were performed in accordance with the relevant guidelines and regulations. In brief, C57BL/6 mice (9 weeks old; Envigo, UK) were anaesthetized using ketamine (80 mg kg^−1) and xylazine (5 mg kg^−1) administered via intraperitoneal route 20 minutes prior to the experiment and placed on a heated pad (37 °C). […] The tail tip was placed in sterile saline at 37 °C and the time to cessation of bleeding was measured up to 20 minutes.
Molecule,effect on clot retraction [1],"inhibition at 100 µM ([2]; Homo sapiens, Platelet)",effect on AKT phosphorylation at S473 (AKT),effect on dephosphorylation of Src at Y527 (Src),"inhibition at 100 µM (human whole blood; 10 min, 20 dynes/cm^2, read-out: inhibition of thrombus growth and volume)",bleeding time (average) (haemostasis in mice),inhibition of dense granule secretion (ATP release) [2],"inhibition of thrombus growth and volume (human whole blood; 20 dynes/cm^2, 10 minutes)"
O=c1cc(-c2ccccc2)oc2cc(O)cc(O)c12 [chrysin],did not show significant effects,100%,inhibited their phosphorylation in a concentration-dependent manner,significant impact on the dephosphorylation of Src at Y527,~50%,901 s,–,–
chlorido [(5-oxo-κO)-7-hydroxy-(2-phenyl)-4H-chromen-4-thionato-κS] (η6-p-cymene)ruthenium(II) [Ru-thio-chrysin],superior effects in comparison to native chrysin,–,inhibited their phosphorylation in a concentration-dependent manner,significant impact on the dephosphorylation of Src at Y527,–,1096 s,100%,approximately 75%
